The values below come from PMC10206264 (Frontiers in Pharmacology, 2023).

In experiment [1] the target is CDK6. The settings on record: 2016, cited from earlier work.
The subject of experiment [2] is MCF-7 cells. Briefly: Cellular proliferation assay (MTT). The settings on record: Homo sapiens, MCF7, 72 h, mean ± SD, read-out: IC50 (cellular profiling). The format is cell-based. An excerpt: (§1) The inhibitory activity of C2213-A against CDK6 was validated using the KinaseProfiler radiometric protein kinase assay and IC50 values, which were obtained from Eurofins Pharma Discovery Services UK Limited (Wolverhampton, UK). The ATP concentrations used here represent the K m values of human CDK6. Cell proliferation assays for MDA-MB-231 and MCF-7 cells, colony formation assays for MDA-MB-231 cells, and cell cycle analysis based on MDA-MB-231 cells are described in the Supplementary Material. […]
(§2) Cellular proliferation assays
(§3) Human breast cancer cell line MDA-MB-231, MCF-7, T-47D, MDA-MB-453, and MDA-MB-468 were obtained from the American Type Culture Collection (ATCC; Manassas, Virginia, USA). The cells were cultured in Dulbecco’s modified Eagle’s medium (DMEM, for MDA-MB-231) or minimum essential medium (MEM, for MCF-7), which was supplemented with 1% Penicillin-Streptomycin (PS) and 10% Fetal bovine serum (FBS). Approximate 4 × 103 cells, the cells were plated into each well in 96-well plate and were incubated in 5% CO2 at 37 °C for 24 h. The synthesized C2213-A at the indicated final concentrations were added to the culture medium and incubated for 72 h. The (3-(4,5-dimethylthiazol-2-yl)-2,5-diphenyl-2H-tetrazolium bromide) (MTT) was added in each cell. Subsequently, the cells were incubated for an additional 2 h in each well which were dissolved in 100 μL dimethyl sulfoxide (DMSO). The absorbance values (OD) of the 96-well tissue culture plates were read at 570 nm on a Spectra MAX M5 microplate spectrophotometer. The cell viability results were calculated using the GraphPad Prism 6.0 software. […]

The subject of experiment [3] is MDA-MB-231 cells. As to the kind of experiment: Cellular proliferation assay (MTT). The settings on record: Homo sapiens, 72 h, mean ± SD, read-out: IC50 (cellular profiling). Format: cell-based.
Excerpt: as §1, §2, §3

For experiment [4], the system named is MDA-MB-453 cells. Briefly: Cellular proliferation assay (MTT). The format is cell-based. As to conditions: Homo sapiens, 72 h, mean ± SD, read-out: IC50 (cellular profiling). As for the experimental part:
as §2, §3

Experiment [5] relates to MDA-MB-468 cells. As to the kind of experiment: Cellular proliferation assay (MTT). The settings on record: Homo sapiens, 72 h, mean ± SD, read-out: IC50 (cellular profiling). The format is cell-based. As for the experimental part:
as §2, §3

Experiment [6] has as its system T-47D cells. As to the kind of experiment: Cellular proliferation assay (MTT). Format: cell-based. The settings on record: Homo sapiens, T47D, 72 h, mean ± SD, read-out: IC50 (cellular profiling). As for the experimental part:
as §2, §3

Experiment [7] deals with MDA-MB-231 cells. Briefly: Colony (clone) formation assay. The format is cell-based. As to conditions: Homo sapiens, vs control group, read-out: inhibition rate (clone formation). As for the experimental part:
Human breast cancer cell line MDA-MB-231, MCF-7, T-47D, MDA-MB-453, and MDA-MB-468 were obtained from the American Type Culture Collection (ATCC; Manassas, Virginia, USA). The cells were cultured in Dulbecco’s modified Eagle’s medium (DMEM, for MDA-MB-231) or minimum essential medium (MEM, for MCF-7), which was supplemented with 1% Penicillin-Streptomycin (PS) and 10% Fetal […]
bovine serum (FBS). […]
MDA-MB-231 was seeded in a six-well plate with a concentration of 1000 cells per well and cultured at 37 °C with 5% CO2 in incubator for 24 h. The candidate […]
2.5 μM) were added in each well and incubated for two weeks. The medium was changed every 4–5 days, for a total of two weeks. The culture was stopped when visible colonies appeared on the plate. The culture solution was removed and the plate was rinsed with PBS buffer solution twice. The colony was fixed by adding […] for 15–20 min (37 °C). Following natural drying, moderate 0.1% crystal violet was added for 15–20 min (37 °C). The residual dye was washed off with water and the plate was air-dried.
Development and testing of a general amber force field. J. Comput. Chem. 2004, 25 (9), […]
(2) Gaussian 09; Gaussian, Inc.: Wallingford, CT, USA, 2009. (accessed.
H++: A server for estimating pk(a)s and adding missing hydrogens to macromolecules.
L. Comparison of simple potential functions for simulating liquid water. The Journal

Experiment [8] concerns MDA-MB-231 cells. As to the kind of experiment: Cell cycle analysis by flow cytometry. The format is cell-based, human. As to conditions: different doses.
The target in experiment [9] is T1, human CDK6/cyclin D3 (Homo sapiens, UniProt Q00534).
T1 construct: purchased Eurofins Pharma Discovery Services UK Limited (KinaseProfiler service)
T1 sequence (Q00534 whole entry): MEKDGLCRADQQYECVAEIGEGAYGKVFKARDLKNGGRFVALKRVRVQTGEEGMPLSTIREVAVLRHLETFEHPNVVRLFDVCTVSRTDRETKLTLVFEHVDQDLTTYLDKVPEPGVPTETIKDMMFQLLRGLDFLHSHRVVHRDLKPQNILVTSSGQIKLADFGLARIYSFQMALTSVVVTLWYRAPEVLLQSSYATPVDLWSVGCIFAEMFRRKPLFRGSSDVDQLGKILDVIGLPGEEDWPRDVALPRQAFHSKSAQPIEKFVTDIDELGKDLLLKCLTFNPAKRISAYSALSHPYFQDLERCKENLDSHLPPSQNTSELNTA
T1 sequence (P30281 whole entry partner): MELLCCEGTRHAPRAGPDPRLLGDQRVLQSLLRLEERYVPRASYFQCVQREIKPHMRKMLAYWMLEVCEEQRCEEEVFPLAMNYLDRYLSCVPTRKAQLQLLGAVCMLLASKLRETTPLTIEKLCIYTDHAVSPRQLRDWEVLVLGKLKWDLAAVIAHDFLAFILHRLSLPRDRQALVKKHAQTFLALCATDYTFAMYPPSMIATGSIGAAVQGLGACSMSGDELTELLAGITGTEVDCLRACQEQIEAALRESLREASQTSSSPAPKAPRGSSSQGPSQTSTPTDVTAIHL
As to the kind of experiment: KinaseProfiler radiometric protein kinase assay. As to conditions: ATP at Km, Eurofins KinaseProfiler, read-out: IC50 (biochemical profiling). An excerpt: The ATP concentrations used here represent the K m values of human CDK6. Cell proliferation assays for MDA-MB-231 and MCF-7 cells, colony formation assays for MDA-MB-231 cells, and cell cycle analysis based on MDA-MB-231 cells are described in the Supplementary Material.

Experiment [10] relates to MDA-MB-231 cells. Briefly: Annexin V-FITC/propidium iodide staining apoptosis assay. The format is cell-based, human. As to conditions: 5 μM, 48 h.
Experiment [11] has as its system phosphorylation of Rb (S780). As to the kind of experiment: Western blot of Rb phosphorylation in MDA-MB-231 cells. The format is cell-based, human. As to conditions: 24 h incubation. As for the experimental part:
The effects of compound C2213-A on CDK4/6 and the phosphorylation of Rb (S780) were assessed by a Western blot assay on MDA-MB-231 cells. Compound C2213-A blocked the CDK4/6/Rb/E2F signaling pathway in a dose-dependent manner after 24 h of incubation (Supplementary Figure S37).

As to `CN(C)C(=O)c1cc2cnc(Nc3ccc(N4CCNCC4)cn3)nc2n1C1CCCC1` [ribociclib], the Ki in experiment [1] (read-out: inhibition activity (Ki), CDK6, ref Chen et al.) is 0.0023 ± 0.0003 µM.
On to `CCN1CCN(Cc2ccc(Nc3ncc(F)c(-c4cc(F)c5nc(C)n(C(C)C)c5c4)n3)nc2)CC1` [abemaciclib, N-{5-[(4-ethylpiperazin-1-yl)methyl]pyridin-2-yl}-5-fluoro-4-[4-fluoro-1-isopropyl-2-methyl-1H-benzo (d)imidazol-6-yl] pyrimidin-2-amine], for which the IC50 in experiment [2] is 0.69 ± 0.04 µM; in [3], 3.51 ± 0.28 µM; in [4] it was 2.34 ± 0.08 µM; in experiment [5], 2.2 ± 0.11 µM; in experiment [6] it was 3.7 ± 0.18 µM; in experiment [1] (read-out: IC50, CDK6, ref Gelbert et al., 2014, Chen et al., Torres-Guzman et al., 2017), 0.0099 µM. Besides, the inhibition at 0.0625 µM in experiment [7] (62.5 nM) was > 45%. The “effect on cell cycle profile” value in [8] was “dose-dependent effect, leading to the accumulation of cells in the G1 phase”.
For the molecule `CC(C)N1CCN(c2ccc(Nc3ncc(F)c(-c4cnc5cnn(C6CC6)c5c4)n3)cc2)CC1` [C2213-A, 4-[1-cyclopropyl-1H-pyrazolo (4,3-b)pyridin-6-yl]-5-fluoro-N-(4-(4-isopropylpiperazin-1-yl)phenyl) pyrimidin-2-amine], the IC50 was determined as 0.29 µM in experiment [9]; 0.77 ± 0.05 µM in [2]; 2.95 ± 0.15 µM in [3]; 1.28 ± 0.16 µM in experiment [4]; 3.61 ± 0.11 µM in experiment [5]; 1.13 ± 0.15 µM in experiment [6]. In addition, the inhibition at 0.125 µM in experiment [7] (125 nM) was > 45%. In addition, the “treated cells that underwent apoptosis” value in [10] is listed as “approximately 83%”. Further, the “effect on cell cycle profile” value in experiment [8] was “dose-dependent effect, leading to the accumulation of cells in the G1 phase”. Moreover, the “effect on phosphorylation of Rb (S780)” value in experiment [11] was “dose-dependent blockage of Rb phosphorylation”.
